Data set [1] deals with GRα and GRβ. The conditions noted are these: HT-29 cells and MCF-7 cells; in words; cited from earlier work.
The subject of data set [2] is Raji cells. In words: BrdU incorporation assay, glucocorticoid sensitivity of oligonucleotide-transfected Raji cells. In kind it is cell-based, human. To be noted: for BrdU incorporation: absorbance at 450 nm. How it is done: In order to examine the change of glucocorticoid sensitivity of cells caused by introduction of oligonucleotide 1, cell proliferation was quantified by a 5-bromo-2′-deoxyuridine (BrdU) incorporation assay. Dexamethasone (manufactured by Biomol) was used as a glucocorticoid. The concentration of dexamethasone was set to varied concentrations of 0 μM (no addition), 0.1 μM, 0.5 μM, 1 μM, 5 μM, and 10 μM.
Raji cells were cultured in serum-free RPMI1640 medium for 12 hours to synchronize the cell cycle, and then re-suspended in RPMI1640 medium supplemented with serum and inoculated onto a 96-well plate.
After dexamethasone was added, the cells were cultured for 22 hours. Then, BrdU was added thereto, and the cells were cultured for another 2 hours. After centrifugation, the supernatant was discarded, and the cells were dried and fixed. The fixed cells were allowed to react with a peroxidase-labeled anti-BrdU antibody for 1 hour at room temperature. Subsequently, the cells were washed three times with PBS, and tetramethylbenzidine was added thereto. When noticeable coloring was observed, the reaction was stopped by adding H2SO4 (1M). After vigorous agitation, absorbance at 450 nm was measured using a plate reader.
Using the Raji cells to which dexamethasone was not added as a control, cell proliferation inhibitory rate (%) was calculated based on the relative ratio of the obtained absorbance. Here, statistical significance was assessed with one-way analysis of variance and multiple comparison. Tukey's multiple comparison was used for the multiple comparison. A significance level of P<0.05 (vs. no addition of oligonucleotide) was regarded as a significant difference.
BrdU incorporation assay was performed in the same manner as in the above, and alternation of the glucocorticoid sensitivity of the cells caused by the introduction of any one of oligonucleotides 2 to 5 was examined. Each experiment was carried out in quadruplicate. The values shown in Table 7 are average values thereof.
For orientation: Incorporation of labelled thymidine or its analogues reports DNA synthesis.

The subject of data set [3] is Raji cells. In words: BrdU incorporation assay, glucocorticoid sensitivity of oligonucleotide 4-expressing Raji cells. The conditions noted are these: absorbance; dexamethasone 5 μM; label dexamethasone = Control Raji cell. In kind it is cell-based, human. As to the method: In order to examine the glucocorticoid sensitivity of the oligonucleotide 4-expressin Raji cells, BrdU incorporation assay was performed in the same manner as in Example 2, and cell proliferation was quantified. The concentration of dexamethasone was set to 0 μM (no addition) or 5 μM. Each experiment was repeated in triplicate. The values shown in Table 13 are average of thereof.

In data set [4] the test system is GRα and GRβ. Put plainly: GRα and GRβ expression levels in Raji cells transfected with oligonucleotide (RT-PCR and PCR).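 For GAPDH: mean of three independent experiments.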 In kind it is cell-based, human. As to the method: Raji cells (manufactured by Japan Health Science Foundation) derived from human Burkitt's lymphoma were used in experiments.
Raji cells were cultured and maintained in RPMI1640 medium (manufactured by Gibco) at 37° C. in an atmosphere of 5% CO2, the RPMI1640 medium being supplemented with 10% fetal bovine serum (FBS) (manufactured by Filtoron), 100 U/ml penicillin, and 100 μg/ml streptomycin.
2×10^6 Raji cells were washed with phosphate-buffered saline (PBS) and suspended in 100 μl transfection reagent of an Amaxa cell line Nucleofector Kit V (manufactured by Lonza).
After the Raji cells were cultured in the above-described medium for 24 hours, the Raji cells were used for subsequent experiments.
The expression level of glyceraldehyde-3-phosphate dehydrogenase (GAPDH) was determined as an endogenous control.
After the Raji cells were washed with PBS, RNA was extracted using a FastPure RNA Kit (manufactured by Takara Bio Inc.), and reverse transcription was performed using a PrimeScript 1st strand cDNA synthesis kit (manufactured by Takara Bio Inc.). The obtained cDNA was amplified using Platinum Taq DNA polymerase (manufactured by Invitrogen) and PCR primers (having the base sequences shown in Table 2) specific for the gene of interest. The PCR conditions included: performing initial denaturation at 94° C. for 2 minutes; performing 35 cycles of denaturation (94° C. for 30 seconds), annealing (55° C. for 30 seconds), and extension (72° C. for 1 minute); and then performing final extension at 72° C. for 4 minutes.
After the PCR was performed, DNA was separated by […] electrophoresis on a 2% agarose gel containing ethidium bromide, and the intensity of bands was quantified using an image analyzer GEL PRINT 2000i/VGA (manufactured by Genomic Solutions).

For data set [5], the system named is ERα and ERβ. In words: Estrogen receptor expression level in Raji cells transfected with oligonucleotide 1 (RT-PCR and PCR). In kind it is cell-based, human. As to the method:
Estrogen receptor (ER) has two splice variants: ERα and ERβ. It is known that SRp30c is involved in regulating the splicing of ER mRNA.
The expressions levels of ERα and ERβ in Raji cells transfected with oligonucleotide 1 were determined by RT-PCR and PCR.
Raji cells transfected with oligonucleotide 1 were obtained in the same manner as in “Cell Culture” and “Introduction of Oligonucleotide into Cells” in Example 1. The oligonucleotide 1 concentration at the time of introduction into cells was 300 nM.
After the Raji cells were washed with PBS, RNA was extracted using a FASTPURE RNA Kit (manufactured by Takara Bio Inc.), and reverse transcription was performed using a PRIMESCRIPT 1st strand cDNA synthesis kit (manufactured by Takara Bio). The obtained cDNA was amplified using PLATINUM Taq DNA polymerase (manufactured by Invitrogen) and PCR primers (having the sequences shown in Table 8) specific for the gene of interest. The PCR conditions included: performing an initial denaturation at 94° C. for 2 minutes; performing 35 cycles of denaturation (94° C. for 30 seconds), annealing (55° C. for 30 seconds), and extension (72° C. for 1 minute); and performing a final extension at 72° C. for 4 minutes.
The expression level of GAPDH as an endogenous control was determined using PCR primers of SEQ ID Nos: 10 and 11.
After the PCR was performed, DNA was separated by […] electrophoresis on a 2% agarose gel containing ethidium bromide, and the intensity of bands was quantified using an image analyzer GEL PRINT 2000i/VGA (manufactured by Genomic Solutions Inc.).

[6] abbreviates: dexamethasone 0.1 μM, triplicate, label dexamethasone = no oligonucleotide introduced.
The mark [7] stands for this setting: dexamethasone 0.5 μM, triplicate, label dexamethasone = no oligonucleotide introduced.
Where [8] appears, read: dexamethasone 1 μM, triplicate, label dexamethasone = no oligonucleotide introduced.
The mark [9] stands for this setting: dexamethasone 5 μM, triplicate, label dexamethasone = no oligonucleotide introduced.
Setting [10] is: dexamethasone 10 μM, triplicate, label dexamethasone = no oligonucleotide introduced.
[11] abbreviates: expression level (band intensity), oligonucleotide 300 nM by electroporation, 24 h.
[12] abbreviates: expression level (band intensity), oligonucleotide 1 300 nM.

The source of these data is patent US9234200B2, “Oligonucleotide, glucocorticoid sensitivity enhancer, pharmaceutical composition, and expression vector” (National University Corporation Tokyo University of …, priority 2011, dated 2016).

Read-outs that look alike come from different tables or passages of the source.

For the compound `Nc1ncn([C@H]2C[C@H](O)[C@@H](CO)O2)c(=O)n1` [5-aza-2′-deoxycytidine], the “GRα and GRβ expression levels” value in data set [1] was “increase GRα expression levels while decreasing GRβ expression levels”.
For the compound `C[C@@H]1C[C@H]2[C@@H]3CCC4=CC(=O)C=C[C@]4(C)[C@@]3(F)[C@@H](O)C[C@]2(C)[C@@]1(O)C(=O)CO` [dexamethasone, reference compound], the inhibition at 0.1 µM in data set [2] (Homo sapiens, Raji, dexamethasone 0.1 μM vs no dexamethasone, triplicate, label dexamethasone = no oligonucleotide introduced, read-out: cell proliferation inhibitory rate) was determined as 13.4%; in data set [2] (Homo sapiens, Raji, dexamethasone 0.1 μM, quadruplicate (Table 7), label dexamethasone = no oligonucleotide transfected, read-out: cell proliferation inhibitory rate), 13.2%. The inhibition at 0.5 µM in data set [2] (Homo sapiens, Raji, dexamethasone 0.5 μM vs no dexamethasone, triplicate, label dexamethasone = no oligonucleotide introduced, read-out: cell proliferation inhibitory rate) was 16.2%; in data set [2] (Homo sapiens, Raji, dexamethasone 0.5 μM, quadruplicate (Table 7), label dexamethasone = no oligonucleotide transfected, read-out: cell proliferation inhibitory rate), 17.6%. In addition, the inhibition at 1 µM worked out at 12.6% in data set [2] (Homo sapiens, Raji, dexamethasone 1 μM vs no dexamethasone, triplicate, label dexamethasone = no oligonucleotide introduced, read-out: cell proliferation inhibitory rate) and 22.2% in data set [2] (Homo sapiens, Raji, dexamethasone 1 μM, quadruplicate (Table 7), label dexamethasone = no oligonucleotide transfected, read-out: cell proliferation inhibitory rate). The inhibition at 5 µM in data set [2] (Homo sapiens, Raji, dexamethasone 5 μM vs no dexamethasone, triplicate, label dexamethasone = no oligonucleotide introduced, read-out: cell proliferation inhibitory rate) came to 23.3%; in data set [2] (Homo sapiens, Raji, dexamethasone 5 μM, quadruplicate (Table 7), label dexamethasone = no oligonucleotide transfected, read-out: cell proliferation inhibitory rate) it was 21.7%. Also, in data set [2] (Homo sapiens, Raji, dexamethasone 10 μM vs no dexamethasone, triplicate, label dexamethasone = no oligonucleotide introduced, read-out: cell proliferation inhibitory rate), the inhibition at 10 µM was found to be 23.9%. Further, the BrdU incorporation in data set [2] (setting [6]) turned out to be 0.475; in data set [2] (setting [7]), 0.461; in data set [2] (setting [8]) it was 0.479; in data set [2] (setting [9]) it was 0.422; in data set [2] (setting [10]) it was 0.418; in data set [3], 1.07.
Regarding `CCCC(=O)[O-].[Na+]` [sodium butyrate], the “GRα and GRβ expression levels” value in data set [1] was “increase GRα expression levels while decreasing GRβ expression levels”.
In the case of `CC(/C=C/C(=O)NO)=C\[C@@H](C)C(=O)c1ccc(N(C)C)cc1` [trichostatin A], in data set [1], the “GRα and GRβ expression levels” value was “increase GRα expression levels while decreasing GRβ expression levels”.
Regarding “Oligonucleotide 1: an oligonucleotide having a base sequence represented by SEQ ID NO: 1 (5′-CTTTCTGGTTTTAACCACATAACATTCTATA-3′) (listed as DNA, chemistry not given here)”, the GAPDH in data set [4] (expression level (band intensity), endogenous control, oligonucleotide 300 nM by electroporation, 24 h) is on record as 3033.167; in data set [5] (expression level (band intensity), endogenous control, oligonucleotide 1 300 nM) it was 2476.113. In addition, the GRα in data set [4] (setting [11]) is given as 3278.767. In data set [4] (setting [11]), this compound displayed a GRβ of 4611.084. Also, the GRα/GAPDH in data set [4] (oligonucleotide 300 nM) worked out at 1.082. This compound also returned a GRβ/GAPDH in data set [4] (oligonucleotide 300 nM) of 1.519. In addition, the “Relative value of GRα/GRβ” value in data set [4] (oligonucleotide 300 nM, cells not transfected = 1) worked out at 1.213. For the same compound, in data set [4] (various concentrations of oligonucleotide 1), the “expression level of GRβ, concentration dependency” value was “decreased the expression level of GRβ in a concentration-dependent manner”. The ERα in data set [5] (setting [12]) came to 2201.941. Moreover, the ERβ in data set [5] (setting [12]) was 1299.820. In data set [5] (in words), the “regulation of the splicing of ER mRNA” value was “does not affect the regulation of the splicing of ER mRNA”. This compound also gave an ERα/ERβ in data set [5] (oligonucleotide 1 300 nM) of 1.694. The same compound registered an ERα/GAPDH in data set [5] (oligonucleotide 1 300 nM) of 0.889. Besides, in data set [5] (oligonucleotide 1 300 nM), the ERβ/GAPDH is recorded as 0.525. Besides, the “Relative value of ERα/ERβ” value in data set [5] (oligonucleotide 1 300 nM, cells not transfected = 1) is given as “approximately 1”; in data set [5] (oligonucleotide 1 300 nM, cells not transfected = 1, listed as 1), 1.001. Besides, the BrdU incorporation in data set [2] (dexamethasone 0 μM, triplicate) is reported as 0.556; in data set [2] (setting [6]), 0.372; in data set [2] (setting [7]), 0.286; in data set [2] (setting [8]), 0.292; in data set [2] (setting [9]), 0.271; in data set [2] (setting [10]) it was 0.279. The “cell proliferation inhibitory rate” value in data set [2] (dexamethasone 0.1 μM vs no dexamethasone, triplicate, label dexamethasone = no oligonucleotide introduced) was found to be 32.874%; in data set [2] (dexamethasone 0.5 μM vs no dexamethasone, triplicate, label dexamethasone = no oligonucleotide introduced), 48.364%; in data set [2] (dexamethasone 1 μM vs no dexamethasone, triplicate, label dexamethasone = no oligonucleotide introduced), 47.553%; in data set [2] (dexamethasone 5 μM vs no dexamethasone, triplicate, label dexamethasone = no oligonucleotide introduced), 50.624%; in data set [2] (dexamethasone 10 μM vs no dexamethasone, triplicate, label dexamethasone = no oligonucleotide introduced), 49.526%. In data set [2] (in words), the “BrdU incorporation on addition of dexamethasone, compared to Raji cells not transfected” value was “significant reduction in BrdU incorporation”. Besides, the “cell proliferation inhibitory rate on addition of dexamethasone, compared to Raji cells not transfected” value in data set [2] (in words) is listed as “significant increase in cell proliferation inhibitory rate”. The “glucocorticoid sensitivity of cells” value in data set [2] (in words) is “increased the glucocorticoid sensitivity of cells”.
